Laboratory results from US9290740B2, “Use of basic fibroblast growth factor in the de-differentiation of animal connective tissue cells” (Worcester Polytechnic Institute, priority 2008, dated 2016).

System: Oct4, Sox2, Nanog, Rex1, Lin28, Klf4, TERT mRNA in adult human fibroblasts
Assay: RT-PCR and qRT-PCR of stem cell gene transcripts
Type: cell-based
Method: RNA was extracted using TRIzol® reagent (Invitrogen) according to the manufacturer's protocol and quantified by spectrophotometry. 2 μg of RNA was subjected to DNase I digestion, followed by a reverse transcription using a QuantiTech® Reverse transcription kit (Qiagen) with a mixture of oligo-dT and random hexamers primers. 50 ng/well of cDNA was used as template in qPCR reactions with oligonucleotides specific for the genes of interest (Table 1 of Supplementary Information). A non-template control (NTC) and an RNA sample without RT for each sample were used to control for potential contaminating DNA. All qPCR reactions were performed in triplicate with the resultant values being combined into an average threshold cycle (CT). The efficiency of qPCR was calculated from the slope of a relative standard curve using GAPDH primers. Relative quantification was determined using a 7500 Real Time PCR system (Applied Biosystems) measuring SYBR green fluorescence (PerfeCTa™ SYBR Green FastMix, Low ROX (Quanta Biosciences)). Fold differences are calculated using the ΔΔCT method with the formula 2^−ΔΔCt. (Liss, B., “Improved quantitative real-time RT-PCR for expression profiling of individual cells”, Nucleic Acids Research 30(17), e89, 2002). Expression profiles for the mRNA transcripts are shown as fold differences in comparison to mRNA levels in control (untreated) fibroblast cells.
Total RNA was isolated using Trizol (Invitrogen) following the manufacturer's protocol. Four μg of total RNA was used to perform first strand cDNA synthesis using Superscript (Invitrogen). For RT-PCR, 0.5 μl of the first strand cDNA was used as template. PCR was performed in Mg^2+ free PCR buffer (TaKara) supplemented with 1.5 mM MgCl2, 200 μM each of dNTPs, 25 pmoles each of forward and reverse primers and 0.5 U of TaKara ExTaq polymerase per reaction. PCR cycling was done as follows: Initial denaturation at 95° C. for 2 minutes followed by 35 cycles of denaturation at 95° C. for 15 seconds; annealing at primer-specific annealing temperature for 1 minute; and extension at 72° C. for 1:30 minutes. Final extension was done at 72° C. for 10 minutes and the samples held at 4° C. until use. Amplification products were resolved on 2% agarose gels containing 0.5 μg/ml ethidium bromide in 1×TAE buffer and photographed using a Kodak […] Image Station.

[1] = reduced oxygen culture plus FGF2

FGF2: human recombinant FGF2 (Invitrogen, Chemicon or Protide), basic fibroblast growth factor
transcription of Oct4, Nanog and Klf4 (RT-PCR) (5% oxygen, FGF2 supplemented, day 7): increased | transcription of Sox2, Rex1 and Lin28 (RT-PCR) (5% oxygen, day 7): significant transcriptional dependence on FGF2 | Lin28 mRNA levels (qRT-PCR) [1]: further increased | Rex1 and TERT mRNA (qRT-PCR) [1]: not further affected
